PMC9499463, “Potent Chlorambucil-Platinum(IV) Prodrugs” (International Journal of Molecular Sciences, 2022)
Where “and” joins values, the source holds several entries; their conditions need not be identical. Equal entries are not always repeated. Where two headings read alike, the source gives them in different places.

Key:
H460 lung = experiment: MTT growth inhibition assay, 72 h; format: cell-based, human
panel of cell lines = experiment: MTT growth inhibition assay, 72 h, over the cell line panel; format: cell-based, human
SJ-G2 glioblastoma = experiment: MTT growth inhibition assay, 72 h; format: cell-based, human
A431 skin = experiment: MTT growth inhibition assay, 72 h; format: cell-based, human
HT29 colon = experiment: MTT growth inhibition assay, 72 h; format: cell-based, human; settings: for GI50: MTT, 72 h
Du145 prostate = experiment: MTT growth inhibition assay, 72 h; format: cell-based, human; settings: for GI50: MTT, 72 h
A2780 ovarian = experiment: MTT growth inhibition assay, 72 h; format: cell-based, human
HT29 colon cells = experiment: ROS detection assay (DCFH-DA fluorescence); format: cell-based, human; settings: compounds at GI50 concentration, TBHP and NAC 20 μM
Protocol: HT29 colon cells were stained by DCFH-DA and then treated with the compounds at each specific GI50 concentration. Upon ROS production, the DCFH-DA produced […], a fluorescent product. The measured fluorescence was, therefore, proportional to the produced ROS. […] 56CLB at 24 h reported 395 RFU, 437 RFU at 48 h, and 558 RFU at 72 h (Table 6, Figure 14 and Figure S42), respectively, showing a significant production of ROS in comparison to control cells. 5CLB at 24 h produced 337 RFU, 324 RFU at 48 h, and 376 RFU at 72 h (Table 6, Figure 14 and Figure S42), respectively.
To investigate for the presence of ROS in treated cells, DCFDA/H2DCFDA-cellular ROS Assay Kit (Abcam, Cambridge, MA, USA) was used, as described. A total of 25,000 cells/mL of HT29 cells in DMEM were seeded in 96-well plates. Cells were washed with 1X kit buffer, then stained with 25 μM 2’,7’-dichlorofluorescein diacetate (DCFH-DA) and incubated for 45 min. DCFH-DA was then removed, and cells were then re-washed with 1X kit buffer, after which phenol red free media was added. Cells were then treated with GI50 drug concentration for each complex. The plates were directly scanned to measure fluorescence (relative fluorescence units (RFU)) at different time points using the Glo-Max®-Multimode microplate reader (Promega Corporation, Alexandra, VIC, Australia) at an excitation/emission of 485/535 nm. To generate the positive control (20 μM tert-butyl hydroperoxide (TBHP)), cells were washed with 1X kit buffer, and stained with DCFDA (25 μM) for 45 min. DCFDA was then removed and TBHP was added in phenol red free media. The plate was scanned to measure the RFU at different time points as mentioned above. The same method applies for the negative control treated with 20 μM N-acetylcysteine (NAC).

MIA pancreas = experiment: MTT growth inhibition assay, 72 h; format: cell-based, human; settings: for GI50: MTT, 72 h; for fold more active than CLB: MIA pancreas cell line
[1] = test system: non-tumor-derived MCF10A breast line; experiment: MTT growth inhibition assay, 72 h; format: cell-based, human
BE2-C neuroblastoma = experiment: MTT growth inhibition assay, 72 h; format: cell-based, human
[2] = test system: ADDP ovarian (cisplatin-resistant A2780 clone); experiment: MTT growth inhibition assay, 72 h; format: cell-based, human; settings: for GI50: MTT, 72 h; for fold more active than cisplatin: ADDP ovarian cell line
[3] = Lipophilicity by HPLC (log kw); format: physicochemical; settings: chromatographic lipophilicity index, extrapolated to 100% d.i.H2O
Source text: For lipophilicity measurements, HPLC was utilized instead of the traditional shake-flask method, as described. A few studies have also reported the important and effective use of HPLC to measure the lipophilicity of compounds [66, 67]. Each complex was eluted under several isocratic ratios. A standard curve was then generated to calculate the log value of the capacity factor (log k) according to eqn (1). Following eqn (2), the percentage of organic solvent (CH3CN) in the mobile phase from each isocratic run was plotted against […] (Figure S34). Since log kw is the chromatographic lipophilicity index or measure of lipophilicity of the complex, a higher value corresponds to greater lipophilicity. Since PCLB, 5CLB, and 56CLB are structurally related, there were no significant variations in lipophilicity noted based on the calculated log kw values (Table 4). It is evident that PCLB is the least lipophilic of the group, with a calculated log kw value of 1.80, which is likely due to the absence of methyl groups in its phenanthroline system. 5CLB and 56CLB were the most lipophilic of the group with calculated log kw values of 1.90 and 1.87, respectively, and this is due to the presence of methyl substituents in their phenanthroline systems. […] Additionally, the chromatographic lipophilicity index of CLB was also measured using the abovementioned method, with a calculated log kw of 1.88, which is within the range observed for PCLB, 5CLB, and 56CLB. However, CLB was approximately 1-fold more lipophilic than PCLB. […] The order of increasing lipophilicity is […].
For lipophilicity measurements, analytical HPLC was utilized. Elution profiles were acquired on an Agilent Technologies 1260 Infinity instrument equipped with a Phenomenex Onyx^TM Monolithic C18-reverse phase column (100 × 4.6 mm, 5 µm pore size). The mobile phase consisted of solvents, A (0.06% TFA in d.i.H2O) and B (0.06% TFA in CH3CN/d.i.H2O (90:10)). Potassium iodide was used as an external dead volume marker to determine the dead time of the column. Retention times (TR) were measured at varying isocratic ratios ranging from 42% to 48% of solvent B at 1 mL/min. An injection volume of 10 µL was utilized. Capacity factors were determined according to Equation (1):(1) k=(TR−T0)/T0, where k is the capacity factor, TR is the retention time of the analyte, and T0 represents the dead time. A minimum of four different mobile compositions were used for each complex to calculate k. A linear plot was generated of log k against the concentration of CH3CN in the mobile phase to determine the value of log kw expressed by Equation (2):(2) logk=Sφ+logkw, where S is the slope, φ is the concentration of the CH3CN in the mobile phase and log kw represents the capacity factor of the complex in 100% d.i.H2O. […]

MCF-7 breast [4] = experiment: MTT growth inhibition assay, 72 h; format: cell-based, human; settings: MTT, 72 h
U87 glioblastoma = experiment: MTT growth inhibition assay, 72 h; format: cell-based, human
MCF-7 breast [5] = settings: MCF-7 cell line; read-out: GI50 MCF-7 of prodrug designed by Ma et al.; cited from earlier work
[6] = average over all cell lines tested, read-out: Average GI50 Values

Structure (SMILES)	ROS Production (HT29 colon cells; 24 h)	ROS Production (HT29 colon cells; 48 h)	ROS Production (HT29 colon cells; 72 h)	GI50 (H460 lung) [nM]	GI50 (panel of cell lines; [6])	GI50 (SJ-G2 glioblastoma) [nM]	GI50 (A431 skin) [nM]	GI50 (HT29 colon) [nM]	GI50 (Du145 prostate) [nM]	GI50 (A2780 ovarian) [nM]	fold more active than CLB (MIA pancreas) [fold]	GI50 (MIA pancreas) [nM]	GI50 [1] [nM]	GI50 (BE2-C neuroblastoma) [nM]	GI50 [2] [nM]	GI50 (MCF-7 breast [4]) [nM]	GI50 (U87 glioblastoma) [nM]	fold more active than cisplatin [2]	other results
O=C(O)CCCc1ccc(N(CCCl)CCCl)cc1 [CLB, 4-[bis(2-chloroethyl)amino] phenylbutyric acid, reference compound]	110 ± 3 RFU	190 RFU and 190 ± 5 RFU	204 ± 4 RFU																GI50 (H460 lung; Homo sapiens, NCI-H460): 11000 nM; GI50 (panel of cell lines; Homo sapiens, average over all cell lines tested, read-out: Average GI50 Values): 22000 nM; GI50 (panel of cell lines; Homo sapiens, range over the cell lines named in the sentence, read-out: GI50 values ranging (over cell lines)): 4300 to 40000 nM; GI50 (SJ-G2 glioblastoma; Homo sapiens, SJ-G2): 11000 nM; GI50 (A431 skin; Homo sapiens, A-431): 35000 nM; GI50 (HT29 colon; Homo sapiens, HT-29): 39000 nM; GI50 (Du145 prostate; Homo sapiens, DU-145): 27000 nM; GI50 (A2780 ovarian; Homo sapiens, A2780): 4300 ± 0.4 nM; GI50 (MIA pancreas; Homo sapiens): 40000 nM; GI50 ([1]; Homo sapiens, MCF-10A): 17000 nM; GI50 (BE2-C neuroblastoma; Homo sapiens, BE(2)-C): 20000 nM; GI50 ([2]; Homo sapiens, Cisplatin-resistant A2780): 16000 nM; log kw [3]: 1.88; GI50 (MCF-7 breast [4]; Homo sapiens, MCF7): 11000 nM; GI50 (U87 glioblastoma; Homo sapiens): 38000 nM
CC(C)(C)OO [TBHP, tert-butyl hydroperoxide, reference compound]	514 RFU and 514 ± 3 RFU	336 RFU and 336 ± 2 RFU	332 RFU and 332 ± 5 RFU																
N.N.[Cl][Pt][Cl] [Cisplatin, cis-diamminedichloroplatinum(II), reference compound]	214 ± 9 RFU	214 ± 9 RFU	200 ± 9 RFU	900 ± 0.2	5842 ± 0.61 nM	400 ± 0.1	2400 ± 0.3	11300	1200 ± 0.1	1000 ± 0.1	5	7500 ± 1.3	5200 ± 0.52	1900 ± 0.2	28000	6500 ± 0.8	3800 ± 1.1		
O=C1[O][Pt]2([NH][C@@H]3CCCC[C@H]3[NH]2)[O]C1=O (relative stereo) [Oxaliplatin, trans-L-(1R,2R-diaminocyclohexane) oxalatoplatinum(II), reference compound]				1600 ± 0.1	1463 ± 0.32 nM	3000 ± 1.2	4100 ± 0.5	900 ± 0.2	2900 ± 0.4	160 ± 0.1	44	900 ± 0.2		900 ± 0.2	800 ± 0.1	500 ± 0.1	1800 ± 0.2		
N[C@H]1CCCC[C@@H]1N.[Cl][Pt][Cl].c1cnc2c(c1)ccc1cccnc12 [PHENSS, [Pt^II(1,10-phenanthroline)(1S,2S-diaminocyclohexane)]Cl2]	174 ± 2 RFU	172 ± 9 RFU	176 ± 7 RFU	360 ± 0.035	434 ± 0.11 nM	330 ± 0.066	480 ± 0.17	160 ± 0.045	100 ± 0.038	230 ± 0.03		200 ± 0.057	300 ± 0.058	380 ± 0.046	190 ± 0.047	1500 ± 0.5	980 ± 0.27	150 fold	
N.N.O=C([O-])CCCc1ccc(N(CCCl)CCCl)cc1.O=C([O-])CCCc1ccc(N(CCCl)CCCl)cc1.[Cl-].[Cl-].[Pt+4]																			GI50 (MCF-7 breast [5]): 2190 ± 0.02 nM
N.N.O=C([O-])C1(C(=O)[O-])CCC1.[Pt+2] [Carboplatin, cis-diammine(1,1-cyclobutanedicarboxylato) platinum(II), reference compound]				14000	32200 nM	5700 ± 0.2	24000	> 50000	15000	9200 ± 2.9		> 50000	> 50000	19000	> 50000	> 50000	> 50000		
Cc1cc2cccnc2c2ncccc12.N[C@H]1CCCC[C@@H]1N.[Cl][Pt][Cl] [5MESS, [Pt^II(5-methyl-1,10-phenanthroline)(1S,2S-diaminocyclohexane)]Cl2]	204 ± 4 RFU	205 ± 3 RFU	188 ± 3 RFU	41 ± 0.005	117 ± 0.01 nM	220 ± 0.01	120 ± 0.025	33 ± 0.0038	22 ± 0.0027	61 ± 0.01		48 ± 0.002	30 ± 0.0018	270 ± 0.038	34 ± 0.0023	200 ± 0.012	320 ± 0.026	800 fold	
CC(=O)N[C@@H](CS)C(=O)O [NAC, N-acetylcysteine, reference compound]	71 ± 2 RFU	85 ± 6 RFU	91 ± 5 RFU																
Cc1c(C)c2cccnc2c2ncccc12.N[C@H]1CCCC[C@@H]1N.[Cl][Pt][Cl] [56MESS, [Pt^II(5,6-dimethyl-1,10-phenanthroline)(1S,2S-diaminocyclohexane)]Cl2]	240 ± 5 RFU	218 ± 3 RFU	255 ± 4 RFU	21 ± 0.0019	40 nM and 36 nM	66 ± 0.022	29 ± 0.001	10 ± 0.0016	4.6 ± 0.00039	76 ± 0.057	~4000	13 ± 0.002	16 ± 0.0012	59 ± 0.0041	13 ± 0.0022	93 ± 0.044	35 ± 0.0064	more than 2000 fold	fold more active than CLB (HT29 colon; HT29 colon cell line): ~4000 fold; fold increase in potency compared to CLB (Du145 prostate; Du145 prostate cell line): 6000 fold
